Test results from ChEMBL document CHEMBL6092203, “Discovery of Novel PROTAC-Based HPK1 Degraders with High Potency and Selectivity for Cancer Immunotherapy” (J Med Chem, 2024).

How the values were obtained:
[1] = Drug metabolism in monkey hepatocytes assessed as phase 2 metabolites formation at 10 uM incubated for 120 mins by UHPLC-UV/MS/MS method; assay type: ADME, cell-based, Macaca mulatta, Hepatocyte; settings: rhesus monkey, 2 h
[2] = Induction of p-SLP76 at Ser376 protein degradation in human Jurkat cells incubated for 24 hrs by Western blotting analysis; assay type: cell-based

- Drug metabolism [1]: metabolite_detected
- DC50 [2]: 5.63 nM
Compound: O=C1CCN(c2cc(C(=O)N3CCC(CC4CCN(c5ccc(-c6cnc7[nH]cc(-c8cnn(CC(F)(F)F)c8)c7n6)cn5)CC4)CC3)ccc2Cl)C(=O)N1
